According to PubChem BioAssay (NCI):
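Cells were grown in 96-well plates and exposed to each compound for 48 hours at five concentrations; endpoints were interpolated linearly between bracketing concentrations, or set to the highest concentration if not reached. GI50 marks 50% less growth. TGI: total growth inhibition.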

Tests used:
Assay in all cases: NCI-60 cell line screen, 48 h
[1] = test system: OVCAR-5 ovarian
[2] = test system: SF-539 CNS
[3] = test system: MOLT-4 leukemia
[4] = test system: NCI-H23 lung
[5] = test system: SK-MEL-2 melanoma
[6] = test system: HS 578T breast
[7] = test system: OVCAR-4 ovarian
[8] = test system: A498 renal
[9] = test system: HOP-62 NSCLC
[10] = test system: SK-OV-3 ovarian
[11] = test system: CCRF-CEM leukemia
[12] = test system: M14 melanoma
[13] = test system: COLO 205 colon
[14] = test system: HCC-2998 colon
[15] = test system: HL-60(TB) leukemia
[16] = test system: SK-MEL-28 melanoma
[17] = test system: SR leukemia
[18] = test system: 786-0 renal
[19] = test system: HT29 colon
[20] = test system: UO-31 renal
[21] = test system: HCT-116 colon
[22] = test system: PC-3 prostate
[23] = test system: MALME-3M melanoma
[24] = test system: NCI-H460 lung
[25] = test system: RXF 393 renal
[26] = test system: SNB-19 CNS
[27] = test system: DU-145 prostate
[28] = test system: MDA-MB-468 breast
[29] = test system: OVCAR-3 ovarian
[30] = test system: MDA-MB-435
[31] = test system: TK-10 renal
[32] = test system: EKVX NSCLC
[33] = test system: KM12 colon
[34] = test system: SN12C renal
[35] = test system: T-47D breast
[36] = test system: HCT-15 colon
[37] = test system: IGROV1 ovarian
[38] = test system: ACHN renal
[39] = test system: NCI-H522 lung
[40] = test system: UACC-62 melanoma
[41] = test system: SF-295 CNS
[42] = test system: CAKI-1 renal
[43] = test system: HOP-92 NSCLC
[44] = test system: U251 CNS
[45] = test system: SF-268 CNS
[46] = test system: SK-MEL-5 melanoma
[47] = test system: SNB-75 CNS
[48] = test system: K-562 leukemia
[49] = test system: NCI/ADR-RES ovarian
[50] = test system: UACC-257 melanoma
[51] = test system: OVCAR-8 ovarian
[52] = test system: BT-549 breast
[53] = test system: SW-620 colon
[54] = test system: LOX IMVI melanoma
[55] = test system: MDA-MB-231 breast
[56] = test system: MCF7 breast
[57] = test system: A549 NSCLC
[58] = test system: RPMI-8226 leukemia
[59] = test system: NCI-H226 lung

SMILES: CNC(=O)c1cccc(N2CCc3c2ccc(NC(=O)Nc2ccc(N4CCN(C)CC4)c(C(F)(F)F)c2)c3F)c1
- GI50 [1]: 5.45 µM
- TGI [1]: 10.3 µM
- GI50 [2]: 1.18 µM
- TGI [2]: 4.94 µM
- GI50 [3]: 1.7 µM
- TGI [3]: 20.9 µM
- GI50 [4]: 5.97 µM
- TGI [4]: 11.8 µM
- GI50 [5]: 6.15 µM
- TGI [5]: 11.8 µM
- GI50 [6]: 1.46 µM
- TGI [6]: 8.54 µM
- GI50 [7]: 5.07 µM
- TGI [7]: 11.5 µM
- GI50 [8]: 5.36 µM
- TGI [8]: 10.4 µM
- GI50 [9]: 5.23 µM
- TGI [9]: 11.9 µM
- GI50 [10]: 5.93 µM
- TGI [10]: 11.7 µM
- GI50 [11]: 5.43 µM
- TGI [11]: 29.3 µM
- GI50 [12]: 6.78 µM
- TGI [12]: 14.3 µM
- GI50 [13]: 6.46 µM
- TGI [13]: 17.5 µM
- GI50 [14]: 5.3 µM
- TGI [14]: 10.3 µM
- GI50 [15]: 7.63 µM
- TGI [15]: 25.7 µM
- GI50 [16]: 4.99 µM
- TGI [16]: 9.81 µM
- GI50 [17]: 5.74 µM
- TGI [17]: > 36.5 µM
- GI50 [18]: 1.99 µM
- TGI [18]: 8.25 µM
- GI50 [19]: 1.44 µM
- TGI [19]: 8.51 µM
- GI50 [20]: 5.86 µM
- TGI [20]: 10.8 µM
- GI50 [21]: 5.06 µM
- TGI [21]: 13.8 µM
- GI50 [22]: 3.91 µM
- TGI [22]: 12.1 µM
- GI50 [23]: 4.17 µM
- TGI [23]: 8.7 µM
- GI50 [24]: 5.27 µM
- TGI [24]: 11.6 µM
- GI50 [25]: 0.976 µM
- TGI [25]: 2.65 µM
- GI50 [26]: 5.48 µM
- TGI [26]: 10.7 µM
- GI50 [27]: 5.68 µM
- TGI [27]: 11.3 µM
- GI50 [28]: 5.41 µM
- TGI [28]: 11.3 µM
- GI50 [29]: 5.04 µM
- TGI [29]: 11 µM
- GI50 [30]: 5.28 µM
- TGI [30]: 10.5 µM
- GI50 [31]: 6.21 µM
- TGI [31]: 11.6 µM
- GI50 [32]: 5.05 µM
- TGI [32]: 10.2 µM
- GI50 [33]: 0.166 µM
- TGI [33]: 6.5 µM
- GI50 [34]: 5.81 µM
- TGI [34]: 11.1 µM
- GI50 [35]: 6.33 µM
- TGI [35]: 19.3 µM
- GI50 [36]: 3.92 µM
- TGI [36]: 9.15 µM
- GI50 [37]: 6.21 µM
- TGI [37]: 11.7 µM
- GI50 [38]: 5.61 µM
- TGI [38]: 10.5 µM
- GI50 [39]: 6.46 µM
- TGI [39]: 13.9 µM
- GI50 [40]: 5.9 µM
- TGI [40]: 10.8 µM
- GI50 [41]: 0.717 µM
- TGI [41]: 1.7 µM
- GI50 [42]: 6.04 µM
- TGI [42]: 12 µM
- GI50 [43]: 5.36 µM
- TGI [43]: 11.6 µM
- GI50 [44]: 3.73 µM
- TGI [44]: 8.59 µM
- GI50 [45]: 4.87 µM
- TGI [45]: 12.3 µM
- GI50 [46]: 5.43 µM
- TGI [46]: 10.4 µM
- GI50 [47]: 1.25 µM
- TGI [47]: 6.93 µM
- GI50 [48]: 6.69 µM
- TGI [48]: > 36.5 µM
- GI50 [49]: 7.02 µM
- TGI [49]: 17.5 µM
- GI50 [50]: 6.1 µM
- TGI [50]: 12 µM
- GI50 [51]: 7.5 µM
- TGI [51]: 16.4 µM
- GI50 [52]: 5.14 µM
- TGI [52]: 11.1 µM
- GI50 [53]: 1.19 µM
- TGI [53]: 5.23 µM
- GI50 [54]: 5.15 µM
- TGI [54]: 10.3 µM
- GI50 [55]: 2.93 µM
- TGI [55]: 7.59 µM
- GI50 [56]: 4.63 µM
- TGI [56]: 10.3 µM
- GI50 [57]: 5.75 µM
- TGI [57]: 13.9 µM
- GI50 [58]: 1.59 µM
- TGI [58]: > 36.5 µM
- GI50 [59]: 6.12 µM
- TGI [59]: 14.6 µM
